Calls of active or inactive are those of the source. The rule behind the calls is not given here.
How the values were obtained:
Mus musculus = assay: In vivo inhibition of tankyrase-mediated Wnt gene transcription in tumor of athymic nude mouse xenografted with human DLD1 cells at 50 mg/kg, po bid for 3 days by STF assay; assay type: functional, organism-based; set-up: dose 50 mg/kg; details: DLD-1
[1] = target: Muscarinic acetylcholine receptor M1 (Homo sapiens, UniProt P11229); assay: Binding affinity to muscarinic M1 receptor (unknown origin)
Bile salt export pump = Bile salt export pump (Homo sapiens, UniProt O95342); assay: Inhibition of BSEP (unknown origin)
Chain of Bile salt export pump (O95342 whole entry): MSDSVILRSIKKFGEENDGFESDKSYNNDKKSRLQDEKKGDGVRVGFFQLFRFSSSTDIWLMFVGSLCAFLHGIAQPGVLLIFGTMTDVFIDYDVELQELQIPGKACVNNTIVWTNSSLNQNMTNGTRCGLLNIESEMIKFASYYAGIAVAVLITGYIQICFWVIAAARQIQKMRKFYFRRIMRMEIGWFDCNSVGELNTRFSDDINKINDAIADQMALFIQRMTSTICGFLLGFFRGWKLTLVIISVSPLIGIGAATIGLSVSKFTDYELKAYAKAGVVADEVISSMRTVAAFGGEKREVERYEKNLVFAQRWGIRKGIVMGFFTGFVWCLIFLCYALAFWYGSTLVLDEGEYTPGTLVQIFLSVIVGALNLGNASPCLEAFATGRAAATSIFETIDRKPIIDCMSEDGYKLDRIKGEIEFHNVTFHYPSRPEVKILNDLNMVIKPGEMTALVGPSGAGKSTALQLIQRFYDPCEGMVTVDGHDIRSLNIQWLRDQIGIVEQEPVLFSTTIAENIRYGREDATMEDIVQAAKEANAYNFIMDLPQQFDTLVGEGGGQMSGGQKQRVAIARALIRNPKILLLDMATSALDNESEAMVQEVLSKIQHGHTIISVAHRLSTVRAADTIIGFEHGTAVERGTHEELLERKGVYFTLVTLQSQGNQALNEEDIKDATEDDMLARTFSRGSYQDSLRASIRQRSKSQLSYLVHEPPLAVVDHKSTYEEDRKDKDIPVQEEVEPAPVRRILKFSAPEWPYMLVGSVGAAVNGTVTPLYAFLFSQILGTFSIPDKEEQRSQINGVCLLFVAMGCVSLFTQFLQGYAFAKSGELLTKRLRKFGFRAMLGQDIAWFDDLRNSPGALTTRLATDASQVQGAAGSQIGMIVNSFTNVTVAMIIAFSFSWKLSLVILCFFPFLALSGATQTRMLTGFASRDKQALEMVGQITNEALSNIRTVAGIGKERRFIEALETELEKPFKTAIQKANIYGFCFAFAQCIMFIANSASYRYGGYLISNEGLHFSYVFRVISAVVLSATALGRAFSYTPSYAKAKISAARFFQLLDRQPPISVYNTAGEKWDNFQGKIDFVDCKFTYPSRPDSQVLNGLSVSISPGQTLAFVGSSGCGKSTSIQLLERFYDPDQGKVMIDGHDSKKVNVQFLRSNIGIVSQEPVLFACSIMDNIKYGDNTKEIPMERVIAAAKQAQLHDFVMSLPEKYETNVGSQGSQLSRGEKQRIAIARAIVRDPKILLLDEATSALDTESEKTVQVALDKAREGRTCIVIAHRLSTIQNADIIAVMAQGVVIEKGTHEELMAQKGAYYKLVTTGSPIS

Chain of Muscarinic acetylcholine receptor M1 (P11229 whole entry): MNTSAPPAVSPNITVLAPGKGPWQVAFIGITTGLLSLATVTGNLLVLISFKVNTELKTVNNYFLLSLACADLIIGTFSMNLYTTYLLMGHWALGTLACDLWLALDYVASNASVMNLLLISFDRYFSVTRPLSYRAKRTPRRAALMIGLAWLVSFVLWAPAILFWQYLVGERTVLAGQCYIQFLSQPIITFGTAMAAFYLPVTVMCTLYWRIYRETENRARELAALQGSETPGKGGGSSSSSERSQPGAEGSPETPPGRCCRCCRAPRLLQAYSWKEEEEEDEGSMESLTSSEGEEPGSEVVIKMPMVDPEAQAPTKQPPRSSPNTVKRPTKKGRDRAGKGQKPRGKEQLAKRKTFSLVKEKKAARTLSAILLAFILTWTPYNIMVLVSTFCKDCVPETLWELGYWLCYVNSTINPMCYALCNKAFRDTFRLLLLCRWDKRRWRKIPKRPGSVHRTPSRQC

Question: Which results are given for CC1(C)OC(=O)N([C@H]2CC[C@H](c3cnc(N)c(-c4ncccn4)c3)CC2)[C@H]1c1ccccc1?
Answer: inhibition (Mus musculus): Active; IC50 [1]: > 48.5 µM; IC50 (Bile salt export pump): 11 µM
